Data from patent US12704520B2, “Melanogenesis detection method using FAM86A” (Research & Business Foundation Sungkyunkwan University, priority 2019, dated 2026).

Tests used:
[1] = test system: FAM86 (NM_027446.2); test: shRNA mean knockdown level of FAM86 (Table 1); format: cell-based; conditions: Mus musculus FAM86, pLKO.1 vector
[2] = test system: cAMP; test: cAMP ELISA after FAM86A knockdown; format: cell-based, mouse; conditions: B16F10 cells
Protocol: The B16F10 cells cultured in Example 1 were seeded in 6-well plates at a density of 5×10^4 cells per well, grown for 24 hours, and FAM86A shRNA represented by SEQ ID NO: 17 was used for FAM86A gene knockdown. Afterward, the cells were washed twice with PBS. Subsequently, PBS was completely removed, and then 200 μL of RIPA buffer, which is a tissue lysis and staining reagent, was added to each plate, followed by harvesting cells with a scraper. Afterward, a BCA assay was conducted to quantify proteins, and then the expression of cAMP protein was measured using a cAMP ELISA kit (ab65355).

[3] = test system: B16F10 cells; test: Melanin secretion assay after FAM86A knockdown and α-MSH treatment; format: cell-based, mouse; conditions: FAM86A knockdown plus α-MSH 100 nM, 48 hours, absorbance 475 nm
Protocol: The melanin synthesis promoting hormone α-MSH was used to induce melanogenesis in melanocytes.
The B16F10 cells cultured in Example 1 were seeded in a 6-well plate at 5×10^4 cells/well and cultured for 24 hours, FAM86A (family with sequence similarity 86, member A) shRNA represented by SEQ ID NO: 17 was used for knockdown of the FAM86A gene, and then the cells were treated with α-MSH at 100 nM. The resulting cells were cultured in an incubator under conditions of 37° C. and 5% CO2 for 48 hours, and 800 μL of the cell culture fluid was transferred to a fresh tube, and centrifuged at 4° C. and 12,000 rpm for 5 minutes to obtain a supernatant. 100 μL of the resulting supernatant was dispensed into a 96-well plate, and subjected to absorbance measurement at 475 nm. Here, an amount of melanin production was calculated based on 100% of the amount of melanin in cells not treated with α-MSH.

[4] = test system: MAPK & MC1R signaling pathway proteins; test: Western blotting of MAPK & MC1R signaling pathway proteins after FAM86A knockdown; format: cell-based, mouse; conditions: B16F10 cells, 48 hours
Protocol: The B16F10 cells cultured in Example 1 were seeded in 6-well plates at a density of 5×10^4 cells per well, grown for 24 hours, and FAM86A shRNA represented by SEQ ID NO: 17 was used to induce the knockdown of FAM86A gene. The cells were cultured in an incubator under conditions of 37° C. and 5% CO2 for 48 hours. Afterward, the cells were washed twice with PBS. After completely removing the PBS, 200 μL of RIPA buffer, which is a cell lysis and staining reagent, was added to the plate, and the cells were collected using a scraper. Afterward, a protein was quantified using a BCA assay, and electrophoresis was performed using 10% SDS-PAGE. The protein in the resulting PAGE gel was transferred onto a PVDF membrane, and the resulting PVDF membrane onto which the protein transfer had been completed was blocked in TBS-T (in 100 mM NaCl, 10 mM Tris, 0.1% (v/v) Tween-20, pH 7.4 (PBST) containing 3% BSA) at room temperature. Then, after washing three times for 10 minutes using TBS-T, a primary antibody in 3% BSA dissolved in TBS-T was treated for 1 hour, and sufficiently washed with TBS-T. In addition, a secondary antibody was treated for 1 hour, and washed three times with PBS-T for 10 minutes each. Subsequently, the amount and location of a specific protein were confirmed using an ECL detection system. The correction of the protein amount was performed by checking the amount of an actin protein by stripping the PVDF membrane, and confirming it to have the same amount as that of the protein of interest. The primary and secondary antibodies were purchased from Cell Signaling and Santa Cruz.

[5] = test system: B16F10 cells; test: Melanin content assay after FAM86A knockdown and α-MSH treatment; format: cell-based, mouse; conditions: FAM86A knockdown plus α-MSH 100 nM, 48 hours, absorbance 405 nm
Protocol: A melanocyte stimulating hormone (α-MSH), which is a melanin synthesis promoting hormone, was used to induce melanogenesis in melanocytes.
The B16F10 cells cultured in Example 1 were seeded in 6-well plates at a density of 5×10^4 cells per well, grown for 24 hours, and FAM86A shRNA represented by SEQ ID NO: 17 in Table 1 was used for knockdown of the FAM86A gene. The cells were treated with α-MSH to be 100 nM. The resulting cells were cultured in an incubator under conditions of 37° C. and 5% CO2 for 48 hours, the medium was removed, and a cell lysis buffer was treated at 200 μL per well to lyse the cells, followed by centrifugation at 4° C. and 12,000 rpm for 5 minutes and removal of a supernatant. The resulting pellet was treated with 100 μL of a 10% sodium dodecyl sulfate-1M NaOH solution and heated for 30 minutes at 60° C. Afterward, the heated solution was maintained at room temperature to cool to 25° C., absorbance at 405 nm was measured, and the results are shown in FIG. 12. Here, an amount of melanin production was calculated based on 100% of the amount of melanin in cells not treated with α-MSH.

[6] = test system: B16F10 cells; test: Melanin content assay after FAM86A knockdown; format: cell-based, mouse; conditions: FAM86A knockdown without α-MSH, 48 hours, absorbance 405 nm
Protocol: The B16F10 cells cultured in Example 1 were seeded in a 6-well plate at 5×10^4 cells/well and cultured for 24 hours, and the knockdown of the FAM86A gene was induced using FAM86A shRNA represented by SEQ ID NO: 17. The cells were cultured in an incubator under conditions of 37° C. and 5% CO2 for 48 hours, the medium was removed, and then a cell lysis buffer was added at 200 μL per well to lyse the cells, followed by centrifugation at 4° C. and 12,000 rpm for 5 minutes and removal of a supernatant. The resulting pellet was treated with 100 μL of a 10% sodium dodecyl sulfate-1M NaOH solution, and heated for 30 minutes at 60° C. Afterward, the heated solution was maintained at room temperature to cool to 25° C., and absorbance at 405 nm was measured. Here, an amount of melanin production was calculated based on 100% of the amount of melanin in cells in which the FAM86A gene was not knocked down.

SEQ ID NO: 17: FAM86 shRNA (Mus musculus, NM_027446.2), pLKO.1 vector, target sequence SEQ ID NO: 27; used in the examples (DNA CCGGGTCTATGTAGCCTATACTATCCTCGAGGATAGTATAGGCTACATAGACTTTTTG)
Mean Knock down level [1]: 0.87 | cAMP expression [2]: increased | secretion amount of melanin [3]: increased | expression level of MITF protein [4]: significantly increased | expression level of p-CREB protein [4]: significantly increased | expression level of p-PKA protein [4]: significantly increased | p-ERK [4]: decreased | p-JNK [4]: increased | p-p38 [4]: increased | amount of melanin (production) [5]: increased | amount of melanin (production) [6]: increased
